Reference: publication PMC5668434, “Modulation of telomere protection by the PI3K/AKT pathway” (Nature Communications, 2017)
Where two headings read alike, the source gives them in different places.

Key:
[1] = target: T1, PI3K (p110α) (Homo sapiens, UniProt P42336); assay: PI3K alpha biochemical assay (ADP Hunter Plus); conditions: internal data; read-out: PI3Kα IC50
T1 construct: purchased Cama Biosciences (sic; Carna Biosciences) #07CBS-0402A

[2] = target: T2, mTOR (FRAP1) (Homo sapiens, UniProt P42345); assay: mTOR biochemical assay (LanthaScreen)
T2 construct: purchased ThermoFisher PV4753

[3] = system: p-AKT S473 in CHA-9.3 mouse lung cancer cell line; assay: Western blot of AKT phosphorylation at Ser473 in CHA-9.3 cells; format: cell-based; conditions: for p-AKT S473 inhibition (in words): 10 μM time course; for inhibition at 10 µM: Mus musculus
Protocol: These new chemical probes were prepared by replacement of a single key oxygen atom from the morpholine moiety by a methylene group, generating the piperidine derivatives ETP-51259 and ETP-50952 (Fig. 1a). To assess their PI3K cellular activity, we measured phosphorylation of residue Ser473 in AKT (p-AKT S473), a PI3K downstream target[61]–[63], by western blot analysis. To this end, we used the CHA-9.3 mouse lung cancer cell line previously generated by us[39]. […] Of note, the inhibitory activity of ETP-47037 was more prolonged than that of ETP-47228. Thus, ETP-47037 mediated p-AKT S473 inhibition was maintained during the 24-hour treatment while the ETP-47228 mediated inhibition decreased 35% after 24 h as compared to 1-h treatment but still was able to inhibit the pathway above 50% (Fig. 1c).
(§1) For detection of AKT, PRAS40 (T246) and pS6 in CHA9.3 cells, untreated control (DMSO) or treated with the indicated inhibitors, were lysed in RIPA buffer supplemented with 100 mM pefablock (Roche Diagnostics) and protease inhibitor cocktail (Roche Molecular Biochemicals). Proteins were resolved on 10% SDS-PAGE, and transferred to nitrocellulose membrane (Amersham^TM Protan^TM 0.2 µm nNC). Membranes were incubated with antibodies against phospho-AKT (Ser473), AKT, phospo-S6 (Ser 235/236), and S6Ribosomal from Cell Signaling, phospo-PRAS40 (Thr246) from BIOSURCE and anti α-tubulin form Sigma, overnight at 4 °C. After washing, blots were incubated with secondary antibody: Alexa Fluor 680 goat anti-rabbit IgG (Invitrogen) or anti-mouse IgG DyLight 800 conjugated (Thermo Scientific), and visualized using an Odyssey infrared imaging system (Li-Cor Biosciences).

[4] = system: TRF1 foci in p53−/− mouse embryo fibroblasts (MEF); assay: TRF1 foci immunofluorescence in p53−/− MEFs; format: cell-based; conditions: 10 μM, 24 h
Protocol: We then checked whether PI3Kα/AKT inhibition also leads to decreased TRF1 foci in an additional cell type to CHA-9.3 cells. Thus, we used p53 ^−/− mouse embryo fibroblasts (MEF). We treated these MEFs either with the AKT inhibitor MK-2206 or with ETP-47037 at 10 μM concentration for 24 h and analyzed TRF1 foci by immunofluorescence.
TRF1 immunofluorescence of TRF1 was performed in lung tumor-derived cell line (CHA9.3) and in MEFs[39]. A rat monoclonal antibody against mouse TRF1 developed by the Monoclonal antibody unit at CNIO was used to detect endogenous TRF1 (1:500). GFP-TRF1 fluorescence was directly measured in cells fixed in paraformaldehyde. For quantification of TRF1 foci intensity, pictures of fixed cells were automatically acquired from each well by the Opera HCS system (Perkin Elmer). Sixty images of random fields per well, with a 40× magnification lens, were taken under non-saturating conditions. At least 1 × 10^3 cells were analyzed for each well. Briefly, images were segmented using the DAPI staining to generate masks matching cell nuclei from which-TRF1 foci were analyzed.

[5] = system: CHA 9-3 cells; assay: Multitelomeric signals (MTS) by Q-FISH on metaphase spreads; format: cell-based, mouse; conditions: 10 μM, 24 h
Description: Trf1 abrogation is known to lead to a persistent DDR at telomeres, and to induction of telomere-induced chromosomal aberrations[28]–[30]. Trf1 genetic deletion induces the so-called multitelomeric signals (MTS), a chromosomal aberration related to increased telomere fragility during DNA replication, [29]. […] To this end, we treated CHA 9-3 cells with either DMSO, the AKT inhibitor MK-2206 (AKTi) and the PI3K inhibitors ETP-47037 or ETP-47228. For detection of MTS, we performed quantitative fluorescence in situ hybridization (Q-FISH) analysis on metaphase spreads using a telomeric probe to visualize telomeres (“Methods” section). MTS are visualized by presenting a multi-dot pattern at chromosome ends in contrast to normal telomeres that show a single dot at each chromosome end.
Lung cancer-derived cell line (CHA-9-3) and immortalized P110α ^lox/lox MEFS were treated either with 10 µM of ETP-47037, ETP-47228, or AKTi (MK-2206) for 24 h. Q-FISH in metaphase spreads was performed as described above, but increasing the concentration of formamide in both the incubation and the washes to 70%.

[6] = system: TRF1 protein in CHA 9-3 nuclear extracts; assay: Western blot of nuclear TRF1 in CHA 9-3 cells; format: cell-based, mouse; conditions: 10 μM
Protocol: (§2) Blots were incubated with the primary antibodies anti-TRF1 1:500 (home-made monoclonal Rat, CNIO; TRF-78, ABCAM, ab10579) and with anti-SMC1 1:2000 (Bethyl Laboratories #A300-055A) as loading control. For nuclear protein preparation, the Nuclear/Cytosol Fractionation Kit (K266-100, BioVision) was used according to the manufactures protocol.

[7] = system: TRF1 protein in p53−/− MEFs nuclear extracts; assay: Western blot of nuclear TRF1 in p53−/− MEFs; format: cell-based, mouse; conditions: 10 μM
Protocol: as §2

[8] = system: PRAS40 (T246) and pS6 (S235/236) in CHA 9-3 cells; assay: Western blot of PI3K downstream targets PRAS40 (T246) and pS6 (S235/236); format: cell-based, mouse; conditions: 10 μM
Protocol: We also determined the effect of ETP-47037 and ETP-47228 in the inhibition of other PI3K downstream targets, PRAS40 (T246), and pS6 (S235/236)[64], [65] (Supplementary Fig. 1).
as §1
Supplementary Figure 1. Modulation of PI3K/AKT downstream targets by ETP-47037 and ETP-47228. Representative Western blot images of PRAS40 phosphorylation at T246 and of P6 at S235/236 in CHIA 9-3 lung cancer cell line treated for 24 hours with 10 µM of ETP-47037 or with 10 µM of ETP-47228 at different time points of the treatment. […]

[9] = system: aggressive lung cancer in mice; set-up: method as in PMID 25971796; conditions: mice with aggressive lung cancer; cited from earlier work
[10] = 1 h, 1 h, read-out: Inhibition pAKT (Ser 473) with regard to DMSO
[11] = 4 h, 4 h, read-out: Inhibition pAKT (Ser 473) with regard to DMSO
[12] = 8 h, 8 h, read-out: Inhibition pAKT (Ser 473) with regard to DMSO
[13] = 16 h, 16 h, read-out: Inhibition pAKT (Ser 473) with regard to DMSO
[14] = 24 h, 24 h, read-out: Inhibition pAKT (Ser 473) with regard to DMSO

T1 sequence (P42336 whole entry): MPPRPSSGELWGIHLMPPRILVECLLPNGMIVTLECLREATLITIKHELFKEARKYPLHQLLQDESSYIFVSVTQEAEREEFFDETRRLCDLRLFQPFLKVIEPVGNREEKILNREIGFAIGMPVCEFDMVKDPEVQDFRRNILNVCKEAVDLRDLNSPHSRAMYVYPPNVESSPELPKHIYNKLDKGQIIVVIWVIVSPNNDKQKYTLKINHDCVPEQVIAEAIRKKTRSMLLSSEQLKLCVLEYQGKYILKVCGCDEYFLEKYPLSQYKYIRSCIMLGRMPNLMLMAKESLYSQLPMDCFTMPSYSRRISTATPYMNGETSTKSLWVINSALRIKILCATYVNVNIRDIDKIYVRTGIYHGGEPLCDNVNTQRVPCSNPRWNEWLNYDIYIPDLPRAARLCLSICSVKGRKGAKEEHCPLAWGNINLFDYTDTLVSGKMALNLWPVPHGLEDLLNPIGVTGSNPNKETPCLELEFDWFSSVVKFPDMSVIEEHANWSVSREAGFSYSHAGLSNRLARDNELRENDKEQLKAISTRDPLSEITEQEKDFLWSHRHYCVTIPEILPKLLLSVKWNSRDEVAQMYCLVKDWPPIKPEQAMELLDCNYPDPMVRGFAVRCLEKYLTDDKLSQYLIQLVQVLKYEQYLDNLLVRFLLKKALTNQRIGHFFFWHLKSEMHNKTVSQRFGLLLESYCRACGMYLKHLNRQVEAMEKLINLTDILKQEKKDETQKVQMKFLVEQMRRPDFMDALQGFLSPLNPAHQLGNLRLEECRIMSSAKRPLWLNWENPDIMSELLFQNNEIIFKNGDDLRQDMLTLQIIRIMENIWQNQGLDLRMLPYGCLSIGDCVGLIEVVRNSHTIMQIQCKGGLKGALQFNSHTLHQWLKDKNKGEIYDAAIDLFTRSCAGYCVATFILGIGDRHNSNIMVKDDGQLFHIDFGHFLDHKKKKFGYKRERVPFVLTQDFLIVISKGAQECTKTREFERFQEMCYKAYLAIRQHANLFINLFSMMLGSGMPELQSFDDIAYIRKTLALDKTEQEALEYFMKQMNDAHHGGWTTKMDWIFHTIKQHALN
T1 sequence (P27986 whole entry partner): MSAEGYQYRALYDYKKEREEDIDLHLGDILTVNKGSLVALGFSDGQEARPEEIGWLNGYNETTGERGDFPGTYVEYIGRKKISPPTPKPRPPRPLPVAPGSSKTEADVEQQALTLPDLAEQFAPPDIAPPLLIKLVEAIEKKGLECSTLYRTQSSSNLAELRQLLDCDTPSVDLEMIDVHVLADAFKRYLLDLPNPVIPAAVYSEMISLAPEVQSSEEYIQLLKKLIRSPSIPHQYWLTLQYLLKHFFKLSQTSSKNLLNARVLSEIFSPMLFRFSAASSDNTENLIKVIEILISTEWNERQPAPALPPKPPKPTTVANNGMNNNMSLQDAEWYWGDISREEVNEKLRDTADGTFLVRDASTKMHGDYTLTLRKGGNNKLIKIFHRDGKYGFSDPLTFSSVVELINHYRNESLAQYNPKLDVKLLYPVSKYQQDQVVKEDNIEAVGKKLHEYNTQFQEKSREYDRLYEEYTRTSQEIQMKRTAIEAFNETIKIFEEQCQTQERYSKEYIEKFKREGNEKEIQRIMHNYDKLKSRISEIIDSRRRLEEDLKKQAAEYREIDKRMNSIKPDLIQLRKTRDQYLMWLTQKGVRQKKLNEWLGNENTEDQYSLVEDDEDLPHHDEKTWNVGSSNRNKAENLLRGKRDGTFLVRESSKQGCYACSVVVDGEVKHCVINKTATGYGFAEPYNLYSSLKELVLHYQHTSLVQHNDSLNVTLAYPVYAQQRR
T2 sequence (P42345 1360-2549 limits assumed): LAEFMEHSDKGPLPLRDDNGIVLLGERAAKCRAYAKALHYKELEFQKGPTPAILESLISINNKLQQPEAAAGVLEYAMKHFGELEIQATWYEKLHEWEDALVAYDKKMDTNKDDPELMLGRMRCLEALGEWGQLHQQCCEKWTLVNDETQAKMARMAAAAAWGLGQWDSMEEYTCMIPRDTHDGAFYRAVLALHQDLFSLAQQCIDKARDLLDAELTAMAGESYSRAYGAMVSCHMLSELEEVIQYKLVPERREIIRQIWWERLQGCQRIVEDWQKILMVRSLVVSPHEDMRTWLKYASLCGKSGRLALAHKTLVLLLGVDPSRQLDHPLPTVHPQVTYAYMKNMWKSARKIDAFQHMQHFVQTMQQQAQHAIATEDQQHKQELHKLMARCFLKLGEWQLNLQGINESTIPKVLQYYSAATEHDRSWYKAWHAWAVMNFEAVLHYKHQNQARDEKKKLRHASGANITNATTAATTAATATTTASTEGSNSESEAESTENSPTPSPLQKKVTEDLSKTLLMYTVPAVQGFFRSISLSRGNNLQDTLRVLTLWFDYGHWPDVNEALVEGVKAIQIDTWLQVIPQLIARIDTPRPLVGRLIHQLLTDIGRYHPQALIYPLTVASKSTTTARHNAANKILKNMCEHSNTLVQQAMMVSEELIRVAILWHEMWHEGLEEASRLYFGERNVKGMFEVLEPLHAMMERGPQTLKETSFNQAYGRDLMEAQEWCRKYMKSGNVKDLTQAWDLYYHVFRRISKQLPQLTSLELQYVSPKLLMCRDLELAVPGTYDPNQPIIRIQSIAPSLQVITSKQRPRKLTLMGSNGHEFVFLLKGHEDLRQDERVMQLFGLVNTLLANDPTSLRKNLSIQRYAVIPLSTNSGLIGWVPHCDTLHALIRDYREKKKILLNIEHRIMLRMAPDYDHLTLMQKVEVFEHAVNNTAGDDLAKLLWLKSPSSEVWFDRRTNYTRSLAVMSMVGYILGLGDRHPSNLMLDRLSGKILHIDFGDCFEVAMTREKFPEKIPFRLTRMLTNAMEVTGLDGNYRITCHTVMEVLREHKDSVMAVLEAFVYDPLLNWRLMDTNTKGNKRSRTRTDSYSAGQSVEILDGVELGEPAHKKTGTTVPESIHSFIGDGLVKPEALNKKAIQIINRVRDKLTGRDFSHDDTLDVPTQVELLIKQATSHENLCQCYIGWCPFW

Structure (SMILES)	IC50 [1] [nM]	IC50 ([2]; as given in the text) [nM]	p-AKT S473 inhibition (in words) [3]	inhibition at 10 µM [3, 10] [%]	inhibition at 10 µM [3, 11] [%]	inhibition at 10 µM [3, 12] [%]	inhibition at 10 µM [3, 13] [%]	inhibition at 10 µM [3, 14] [%]	Reduction in TRF1 foci intensity [4] [%]	Frequency of MTS events per metaphase compared to DMSO [5]	TRF1 protein levels in nuclear extracts [6]	Total nuclear TRF1 levels compared to DMSO [7]	Inhibition of PI3K downstream targets PRAS40 (T246) and pS6 (S235/236) (in words) [8]	Telomere TRF1 foci in vivo [9]	Telomeric DNA damage in vivo [9]	Tumor growth as compared to non-treated mice [9]	IC50 ([2]; internal data) [nM]	inhibition at 10 µM ([3]; read-out: Decrease of p-AKT S473 inhibition after 24 h as compared to 1-h treatment) [%]
CS(=O)(=O)N1CCN(Cc2cc3c(N4CCOCC4)nc(-c4cnc(N)nc4)cn3n2)CC1 [ETP-47037]	0.99	1700	strongly inhibited	92	97	96	97	94	34	significantly increased	significantly decreased	decreased	bona fide inhibitors of the PI3K/AKT axis	significantly decreased	induced telomeric DNA damage	blocked tumor growth	–	–
Cc1cnc2c(N3CCOCC3)nc(-c3ccc(NC(=O)Nc4ccc(C(=O)N5CCN(C)CC5)cc4)cc3)cn12 [ETP-47228]	2.6	–	strongly inhibited	90	93	78	66	59	–	significantly increased	significantly decreased	–	bona fide inhibitors of the PI3K/AKT axis	–	–	–	443	35
